Assay results published in US6579689B2, “Modulation of γ-secretase activity” (Scios Inc., priority 2000, dated 2003).

Test system: γ-secretase
Assay: Cell-free 0.5% CHAPS solubilized γ-secretase activity, Aβ production (Aβ40 ELISA)
Format: biochemical, monkey
Conditions: for enhancement of γ-secretase activity by other phospholipids, compared with cardiolipin: concentration not given
Method: To produce membranes containing high levels of CT99, ˜10^9 CV-1 monkey fibroblast cells were infected with VV99 for 48 hours. After this period, the cells were harvested, washed with saline, and pelleted by low speed centrifugation at 1200 rpm for 10 minutes at 4° C. The cell pellet was resuspended in 25 mls 0.25 M sucrose, 10 mM Tris-HCl pH 7.5, 1 mM EDTA then homogenized with a Dounce homogenizer using a tight fitting pestle. The sample is centrifuged at 2300 rpm for 10 minutes at 4° C. This homogenization step was repeated.
The resulting pellets containing nuclei and large debris were discarded and the post-nuclear supernatants were combined. The supernatant fraction was centrifuged at 100,000×g for 30-60 minutes at 4° C. to collect membranes. The membranes were washed in buffer containing 0.2% saponin, 10 mM Tris-HCl pH 7.5, 1 mM EDTA to remove contaminating proteolytic activity, followed by centrifugation at 100,000×g for 30 minutes at 4° C. This step was repeated. Membranes at this stage can be used directly for assaying γ-secretase activity, or may be further treated to provide solubilized γ-secretase activity.
The saponin-washed membrane fraction was next solubilized with 0.5% CHAPS prepared in 10 mM Tris-HCl pH 7.5 with 5 mM EDTA. Aliquots of membranes containing γ-secretase activity were treated with detergent at 0° C. for 1 hour after which the treated samples were centrifuged at 100,000×g for 1 hour at 4° C. The resulting supernatants (soluble fractions) were assayed for Aβ production. 0.5% CHAPS was successful in solubilizing and preserving the γ-secretase activity.
To produce Aβ protein in vitro, an aliquot of the saponin-washed fraction or an aliquot of the 0.5% CHAPS treated soluble fraction was first adjusted to pH 7.0 by making a 1:10 dilution of the fraction with 1 M Tris-HCl pH 7.0 for a final concentration of 100mM Tris-HC1. The neutralized samples were incubated at 37° C. for various lengths of time, typically ranging from 0 (control) to 24 hours. After incubation, the samples were assayed for Aβ production as follows.
Wells of a 96-microtiter plate were coated overnight at 4° C. with 100 μl/well of a 4 μg/ml solution of purified monoclonal antibody 1702.1 diluted in phosphate buffered saline (PBS). The 1702.1 monoclonal antibody specifically recognizes the Aβ40 isoform. […] The plate is washed three times with PBS 0.05% Tween 20 and the amount of 1101.1 second antibody bound to the well is detected with HRP-conjugated Streptavidin (Zymed) using a tetramethylbenzidine substrate (Sigma). The resulting colormetric reaction is quantified by reading the plate at OD^450nm. The amount of Aβ40 present in the test sample is calculated from known amounts of synthetic Aβ40 peptide standard run in the ELISA. […]

Molecule	enhancement of γ-secretase activity by other phospholipids, compared with cardiolipin	enhancement of γ-secretase activity (Aβ production) by added phospholipid (1 μM cardiolipin, FIG. 4)
phosphotidylcholine	comparable results	
CCCCCCCCCCCCCCCC(=O)OC[C@H](COP(=O)([O-])OCC[N+](C)(C)C)OC(=O)CCCCCCCCCCCCCCC [1,2 dipalmitoyl-5-glycerol-3-phosphocholine]	comparable results	
cardiolipin		nearly equivalent to the activity originally present in the membranes prior to solubilization
phosphotidylserine	comparable results	
